Source: ChEMBL document CHEMBL5360672, “Identification of Novel Dual-Target Estrogen Receptor α Degraders with Tubulin Inhibitory Activity for the Treatment of Endocrine-Resistant Breast Cancer” (J Med Chem, 2023)
Calls of active or inactive are those of the source. The calls are words filed in the database; no cut-off is given here.

Experiments:
MDA-MB-231 = test: Antiproliferative activity against ERalpha negative human MDA-MB-231 cells assessed as inhibition of cell proliferation incubated for 72 hrs by CCK8 assay; type: functional, cell-based; conditions: MDA-MB-231, 72 h
[1] = Antiproliferative activity against human Tamoxifen-resistant LCC2 cells assessed as inhibition of cell proliferation incubated for 72 hrs by CCK8 assay; type: functional, cell-based
T47D [2] = test: Antiproliferative activity against human T47D cells harboring ERalpha D538G mutant assessed as inhibition of cell proliferation incubated for 72 hrs by CCK8 assay; type: functional, cell-based
T47D [3] = test: Antiproliferative activity against human T47D cells harboring ERalpha Y537S mutant assessed as inhibition of cell proliferation incubated for 72 hrs by CCK8 assay; type: functional, cell-based
[4] = Antitumor activity against human Tamoxifen-resistant LCC2 cells xenografted in Balb/c nude mouse assessed as tumor growth inhibition at 2 mg/kg, ip administered every other day for 20 days relative to control; type: functional; conditions: Tamoxifen-resistant LCC2 cell, 480 h, time 20 day, read-out: TGI
[5] = Cytotoxicity against human MCF-10A cells assessed as inhibition of cell proliferation incubated for 72 hrs by CCK8 assay; type: toxicity, cell-based
MCF7 [6] = test: Antitumor activity against human MCF7 cells xenografted in Balb/c nude mouse assessed as tumor growth inhibition at 2 mg/kg, ip administered every other day for 20 days relative to control; type: functional; conditions: MCF7, 480 h, time 20 day, read-out: TGI
MCF7 [7] = test: Antiproliferative activity against ERalpha positive human MCF7 cells assessed as inhibition of cell proliferation incubated for 72 hrs by CCK8 assay; type: functional, cell-based; conditions: MCF7, 72 h
[8] = biological target: T1, Estrogen receptor (Homo sapiens) (UniProt P03372); test: Induction of ERalpha degradation in human MCF7 cells at 5 uM incubated for 24 hrs by Western blot analysis; type: cell-based
T1 sequence (whole entry): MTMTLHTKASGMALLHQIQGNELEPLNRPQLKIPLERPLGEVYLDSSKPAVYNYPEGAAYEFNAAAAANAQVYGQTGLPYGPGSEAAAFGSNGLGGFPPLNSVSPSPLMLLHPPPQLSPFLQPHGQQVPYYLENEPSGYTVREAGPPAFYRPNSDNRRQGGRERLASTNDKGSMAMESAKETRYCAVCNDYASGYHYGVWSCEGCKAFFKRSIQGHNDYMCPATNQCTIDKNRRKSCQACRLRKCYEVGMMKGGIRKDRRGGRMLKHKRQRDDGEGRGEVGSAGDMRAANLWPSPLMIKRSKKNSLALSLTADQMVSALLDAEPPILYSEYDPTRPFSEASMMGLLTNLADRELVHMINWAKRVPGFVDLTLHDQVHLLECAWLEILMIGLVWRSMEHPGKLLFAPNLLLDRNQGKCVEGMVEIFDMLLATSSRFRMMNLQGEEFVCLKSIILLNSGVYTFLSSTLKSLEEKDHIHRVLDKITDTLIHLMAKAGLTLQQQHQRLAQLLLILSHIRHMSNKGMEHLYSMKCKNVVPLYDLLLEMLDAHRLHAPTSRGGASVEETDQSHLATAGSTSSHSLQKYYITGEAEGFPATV

[9] = biological target: T1, Estrogen receptor (Homo sapiens); test: Binding affinity to human ERalpha assessed as relative binding affinity incubated under vibration for 1 min followed by 2 hrs incubation under dark condition by fluorescence polarization assay relative to estradiol; conditions: time 121.0 min
[10] = Toxicity in Balb/c nude mouse xenografted with human MCF7 cells assessed as effect on heart morphology at 2 to 4 mg/kg, ip administered every other day for 20 days by H&E staining based analysis; type: organism-based; conditions: in vivo, 480 h, dose 2-4 mg/kg, time 20 day
[11] = Toxicity in Balb/c nude mouse xenografted with human MCF7 cells assessed as effect on kidney morphology at 2 to 4 mg/kg, ip administered every other day for 20 days by H&E staining based analysis; type: organism-based; conditions: in vivo, 480 h, dose 2-4 mg/kg, time 20 day
[12] = biological target: T1, Estrogen receptor (Homo sapiens); test: Induction of ERalpha degradation in human MCF7 cells incubated for 6 to 24 hrs by Western blot analysis; type: cell-based; conditions: dose 0.5-5 µM, time 6-24 hrs
MCF7 [13] = test: Antitumor activity against human MCF7 cells xenografted in Balb/c nude mouse assessed as tumor growth inhibition at 4 mg/kg, ip administered every other day for 20 days relative to control; type: functional; conditions: MCF7, 480 h, time 20 day, read-out: TGI
MCF7 [14] = test: Antitumor activity against human MCF7 cells xenografted in Balb/c nude mouse assessed as reduction in Ki67 positive cells at 2 to 4 mg/kg, ip administered every other day for 20 days by immunohistochemistry analysis; type: functional, organism-based; conditions: dose 2-4 mg/kg, time 20.0 day
[15] = biological target: Estrogen receptor beta (Homo sapiens) (UniProt Q92731); test: Binding affinity to human ERbeta assessed as relative binding affinity incubated under vibration for 1 min followed by 2 hrs incubation under dark condition by fluorescence polarization assay relative to estradiol; conditions: time 121.0 min
Tubulin (Homo sapiens) [16] = biological target: T2, Tubulin (Homo sapiens) (UniProt P68371+Q9H4B7+P0DPH7+P68366+Q13509+Q71U36+P04350+Q3ZCM7+P07437+P68363+Q9BQE3+Q6PEY2+Q13885+Q9BVA1+Q9BUF5); test: Disruption of microtubule network in human LCC2 cells assessed as ruptured microtubule network at 4 uM incubated for 48 hrs by DAPI staining based confocal laser scanning microscopic analysis; type: cell-based
[17] = test system: Estrogen receptor (Homo sapiens), P03372 [Y537S]; test: Induction of ERalpha degradation in human T47D cells harboring ERalpha Y537S mutant at 0.5 to 5 uM incubated for 24 hrs by Western blot analysis; type: cell-based; conditions: dose 0.5-5 µM
Homo sapiens = species: Homo sapiens; test: Selectivity ratio of relative binding affinity for human ERalpha to relative binding affinity to human ERbeta
[18] = biological target: T1, Estrogen receptor (Homo sapiens); test: Induction of ERalpha degradation in human MCF7 cells at 5 uM incubated for 24 hrs in the presence of MG-132 by Western blot analysis; type: cell-based
Mus musculus [19] = test: In vivo induction of ERalpha degradation in BALB/c nude mouse xenografted with human tamoxifen-resistant LCC2 cells assessed as decrease in ERalpha expression in tumor at 2 mg/kg, ip administered every other day for 20 days by Western blot analysis; type: functional, organism-based; conditions: time 20.0 day
[20] = biological target: T1, Estrogen receptor (Homo sapiens); test: Induction of ERalpha degradation in human Tamoxifen-resistant LCC2 cells at 0.5 uM incubated for 6 to 24 hrs by Western blot analysis; type: cell-based; conditions: Tamoxifen-resistant LCC2 cell, time 6-24 hrs
[21] = test system: Tamoxifen-resistant LCC2 cell; test: Antitumor activity against human Tamoxifen-resistant LCC2 cells xenografted in Balb/c nude mouse assessed as reduction in Ki67 positive cells at 2 mg/kg, ip administered every other day for 20 days by immunohistochemistry analysis; type: functional, organism-based; conditions: time 20.0 day
[22] = Toxicity in Balb/c nude mouse xenografted with human MCF7 cells assessed as body weight loss at 2 to 4 mg/kg, ip administered every other day for 20 days; type: organism-based; conditions: in vivo, 480 h, dose 2-4 mg/kg, time 20 day
[23] = Selectivity index, ratio of IC50 for cytotoxicity against human MCF-10A cells to IC50 for antiproliferative activity against human MCF7 cells; type: toxicity, cell-based; conditions: MCF-10A cells and MCF7 cells, read-out: Ratio IC50
[24] = Toxicity in Balb/c nude mouse xenografted with human MCF7 cells assessed as effect on liver morphology at 2 to 4 mg/kg, ip administered every other day for 20 days by H&E staining based analysis; type: organism-based; conditions: in vivo, 480 h, dose 2-4 mg/kg, time 20 day
Tubulin (Homo sapiens) [25] = biological target: T2, Tubulin (Homo sapiens); test: Disruption of microtubule network in human MCF7 cells assessed as chaotic microtubule network at 2 uM incubated for 48 hrs by DAPI staining based confocal laser scanning microscopic analysis; type: cell-based
[26] = biological target: T1, Estrogen receptor (Homo sapiens); test: Induction of ERalpha degradation in human MCF7 cells at 5 uM incubated for 24 hrs by Western blot analysis relative to SeCN-OBHSA derivatives; type: cell-based
Tubulin (Homo sapiens) [27] = biological target: T2, Tubulin (Homo sapiens); test: Disruption of microtubule network in human MCF7 cells assessed as ruptured microtubule network at 2 uM incubated for 48 hrs by DAPI staining based confocal laser scanning microscopic analysis; type: cell-based
[28] = test system: Estrogen receptor (Homo sapiens), P03372 [D538G]; test: Induction of ERalpha degradation in human T47D cells harboring ERalpha D538G mutant at 0.5 to 5 uM incubated for 24 hrs by Western blot analysis; type: cell-based; conditions: dose 0.5-5 µM
[29] = biological target: T1, Estrogen receptor (Homo sapiens); test: Induction of ERalpha degradation in human MCF7 cells at 1 uM incubated for 6 to 24 hrs by Western blot analysis; type: cell-based; conditions: time 6-24 hrs
T47D [30] = test: Antiproliferative activity against ERalpha positive human T47D cells assessed as inhibition of cell proliferation incubated for 72 hrs by CCK8 assay; type: functional, cell-based
Mus musculus [31] = test: In vivo induction of ERalpha degradation in BALB/c nude mouse xenografted with human MCF7 cells assessed as decrease in ERalpha expression in tumor at 2 to 4 mg/kg, ip administered every other day for 20 days by Western blot analysis; type: functional, organism-based; conditions: dose 2-4 mg/kg, time 20.0 day
Tubulin (Homo sapiens) [32] = biological target: T2, Tubulin (Homo sapiens); test: Disruption of microtubule network in human LCC2 cells assessed as chaotic microtubule network at 4 uM incubated for 48 hrs by DAPI staining based confocal laser scanning microscopic analysis; type: cell-based
Tubulin (Homo sapiens) [33] = biological target: T2, Tubulin (Homo sapiens); test: Inhibition of tubulin polymerization (unknown origin) at 30 uM incubated for 60 mins by microplate reader analysis; type: protein-complex assay
[34] = Antitumor activity against human Tamoxifen-resistant LCC2 cells xenografted in Balb/c nude mouse assessed as tumor growth inhibition at 4 mg/kg, ip administered every other day for 20 days relative to control; type: functional; conditions: Tamoxifen-resistant LCC2 cell, 480 h, time 20 day, read-out: TGI

Estrogen receptor beta (Homo sapiens), sequence (Q92731 whole entry): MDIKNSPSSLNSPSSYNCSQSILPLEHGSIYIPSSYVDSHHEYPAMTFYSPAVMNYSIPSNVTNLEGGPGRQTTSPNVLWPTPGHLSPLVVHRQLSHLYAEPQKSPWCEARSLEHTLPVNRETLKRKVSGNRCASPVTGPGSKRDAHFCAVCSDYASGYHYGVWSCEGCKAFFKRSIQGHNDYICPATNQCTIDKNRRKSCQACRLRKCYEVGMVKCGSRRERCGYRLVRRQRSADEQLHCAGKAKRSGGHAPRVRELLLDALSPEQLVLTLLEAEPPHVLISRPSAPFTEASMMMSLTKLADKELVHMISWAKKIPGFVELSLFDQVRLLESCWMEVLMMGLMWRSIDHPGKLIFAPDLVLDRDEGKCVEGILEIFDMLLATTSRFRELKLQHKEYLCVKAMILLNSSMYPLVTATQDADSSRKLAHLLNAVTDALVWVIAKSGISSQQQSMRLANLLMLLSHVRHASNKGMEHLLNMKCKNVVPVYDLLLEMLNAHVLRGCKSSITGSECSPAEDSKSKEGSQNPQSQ
Estrogen receptor (Homo sapiens), P03372 [Y537S], sequence (P03372 whole entry Y537S): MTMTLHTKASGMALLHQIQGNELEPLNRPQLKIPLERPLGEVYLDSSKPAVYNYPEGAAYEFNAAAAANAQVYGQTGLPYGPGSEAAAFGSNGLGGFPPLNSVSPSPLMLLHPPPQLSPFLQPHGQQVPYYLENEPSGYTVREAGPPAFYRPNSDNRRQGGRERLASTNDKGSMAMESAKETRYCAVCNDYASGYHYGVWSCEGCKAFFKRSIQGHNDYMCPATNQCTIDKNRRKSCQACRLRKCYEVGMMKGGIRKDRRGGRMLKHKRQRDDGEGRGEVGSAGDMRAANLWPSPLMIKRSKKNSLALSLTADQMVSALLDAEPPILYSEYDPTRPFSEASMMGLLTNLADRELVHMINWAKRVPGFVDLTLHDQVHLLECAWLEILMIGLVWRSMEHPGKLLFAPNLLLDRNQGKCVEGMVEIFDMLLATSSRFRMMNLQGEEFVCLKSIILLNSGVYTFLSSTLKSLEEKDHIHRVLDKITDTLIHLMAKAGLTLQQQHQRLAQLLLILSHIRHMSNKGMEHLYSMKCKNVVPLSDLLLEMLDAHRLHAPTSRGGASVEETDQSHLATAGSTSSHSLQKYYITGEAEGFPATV
Estrogen receptor (Homo sapiens), P03372 [D538G], sequence (P03372 whole entry D538G): as the sequence (P03372 whole entry Y537S) above, with S537Y, D538G counted along it

`CC/C(=C(\c1ccc(O)cc1)c1ccc(OCCN(C)C)cc1)c1ccccc1` [AFIMOXIFENE] showed an IC50 (MDA-MB-231) of 17.2 µM, an IC50 [1] of 20.9 µM and an IC50 (T47D [2]) of 9.13 µM. It also gave an IC50 (T47D [3]) of 8.9 µM.

With `C[C@]12CC[C@@H]3c4ccc(O)cc4C[C@@H](CCCCCCCCC[S+]([O-])CCCC(F)(F)C(F)(F)F)[C@H]3[C@@H]1CC[C@@H]2O` (some centres not stated) [FULVESTRANT] the IC50 (MDA-MB-231) was > 100 µM, the inhibition in vivo at 2 mg/kg [4] was 45.8% and the IC50 at 72 h [5] was > 100 µM. For the same compound, the inhibition in vivo at 2 mg/kg (MCF7 [6]) was 64.1% and the IC50 (MCF7 [7]) was 0.12 µM.

In the case of `CCN(c1ccccc1F)S(=O)(=O)C1CC2OC1C(c1ccc(NC(=O)CCCCC[Se]C#N)cc1)=C2c1ccc(O)cc1` (configuration not stated), the Activity [8] is reported as “Active”, the RBA [9] is reported as 7.26% and the Activity [10] is reported as “Non-Toxic”. The IC50 (MDA-MB-231) was 3.7 µM, the Activity [11] was “Non-Toxic” and the Activity [12] was “Dose-Dependent Effect”. The IC50 [1] was 2.81 µM, the inhibition in vivo at 2 mg/kg [4] was 56.9% and the inhibition in vivo at 4 mg/kg (MCF7 [13]) was 79.3%. For the same compound, the Activity (MCF7 [14]) was “Active”, the RBA [15] was 0.46% and the IC50 (T47D [2]) was 3 µM. For the same compound, the Activity (Tubulin (Homo sapiens) [16]) was “Active”, the Activity [17] was “Active” and the Selectivity ratio (Homo sapiens) was 15.8. For the same compound, the IC50 at 72 h [5] was 18.3 µM, the Activity [18] was “inactive” and the Activity (Mus musculus [19]) was “Active”. The Activity [20] was 100%, the Activity [21] was “Active” and the Activity [22] was “Non-Toxic”. For the same compound, the inhibition in vivo at 2 mg/kg (MCF7 [6]) was 69.1%, the selectivity ratio [23] was 203 and the Activity [24] was “Non-Toxic”. The Activity (Tubulin (Homo sapiens) [25]) was “Active”, the Activity [26] was “Active” and the Activity (Tubulin (Homo sapiens) [27]) was “Active”. The Activity [28] was “Active”, the Activity [29] was “Active” and the IC50 (T47D [30]) was 2.82 µM. The IC50 (T47D [3]) was 1.44 µM, the Activity (Mus musculus [31]) was “Active” and the Activity (Tubulin (Homo sapiens) [32]) was “Active”. For the same compound, the “tubulin polymerization inhibition (active/not active)” value (Tubulin (Homo sapiens) [33]) was “Active” and the IC50 (MCF7 [7]) was 0.09 µM.

In the case of `CC/C(=C(\c1ccccc1)c1ccc(OCCN(C)C)cc1)c1ccccc1` [TAMOXIFEN], the inhibition in vivo at 4 mg/kg (MCF7 [13]) is reported as 71.4% and the inhibition in vivo at 4 mg/kg [34] is reported as 6.25%.

`N#C[Se]CCCCCC(=O)Nc1ccc(C2=C(c3ccc(O)cc3)C3CC(S(=O)(=O)N(CC(F)(F)F)c4ccc(Cl)cc4)C2O3)cc1` (configuration not stated) showed an RBA [9] of 7.52%, an IC50 [1] of 6.69 µM and an RBA [15] of 0.01%. It also gave an IC50 (T47D [2]) of 5.11 µM, a Selectivity ratio (Homo sapiens) of 752 and an IC50 at 72 h [5] of 32.4 µM. The selectivity ratio [23] was 130, the Activity [26] was “Active” and the IC50 (T47D [30]) was 13.6 µM. For the same compound, the IC50 (T47D [3]) was 4.4 µM and the IC50 (MCF7 [7]) was 0.25 µM.
